From patent US20080305059A1, “Skin lightening compositions and methods” (priority 2007, published 2008)

Key:
[1] = system: skin color of forearm test sites; assay: Skin lightening efficacy on forearms, chromometric measurement of L value and ITA degree; assay type: in vivo, human; details: for ΔITA Degrees / ΔL Value: applied twice a day to forearm, 15 individuals, delta = percent change from baseline; for ΔITA Degrees / ΔL Value / adverse effects: 0.5% hexylresorcinol or 2% hydroquinone composition; for adverse effects: twice a day for eight weeks on forearms
Protocol: The composition was prepared by mixing the components of Phase A-1 until a substantially homogenous mixture was obtained and then dispersing that mixture in Phase A-2 with moderate agitation. The mixture was mixed until a homogeneous clear dispersion was obtained. Then, the components of Phase B were combined, mixed and heated to 75° C. and then added to the Phase A-1/A-2 mixture. The so formed mixture was homogenized for 2-3 minutes to obtain a substantially uniform composition. Phase C was added and mixed until uniform. After cooling down to 50° C., Phases D, E and F in the listed order were added and mixed and the final composition then cooled down to room temperature. […] A second skin lightening composition was prepared in the same manner with the same formulation except that the highly purified hexylresorcinol was replaced with 2% hydroquinone (Eastman) and water adjusted accordingly. Each of the skin lightening compositions was applied to different test sites on the forearms of fifteen individuals. The compositions were applied twice a day, morning and evening, for eight weeks. The test sites as well as untreated sites on each forearm were evaluated by a trained clinical evaluator for brightness of skin, evenness of skin tone, appearance of skin, dryness of skin and radiance of skin using a 10 point scale prior to the first application and following Week 4 and Week 8. Each test site was evaluated for skin color change as represented by the change in L values and ITA.degree (Individual Topology Angle—COLIPA SPF test method) as measured by chromometric measurement. ITA° was calculated using the formula: ITA°=[Arc Tangent(L*−50)/b*)]180/3.1416 Wherein, L*value—lightness and b*—color in blue-yellow axis. The results of the testing were as presented in Table 3, wherein the delta represents the percent change in skin color from the baseline coloration of the untreated skin.

[2] = system: skin of the infrascapular regions of the back; assay: Skin sensitivity: repeat occlusive patch test (nine inductive patchings plus challenge); assay type: in vivo, human; details: 5% dilution in corn oil, 111 subjects
Protocol: Given the known sensitivity issues associated with commercial grade hexylresorcinol, evaluation of the skin sensitivity to the purified hexylresorcinol was also evaluated. Skin sensitivity was evaluated following the method cited in the reference Appraisal of the Safety of Chemicals in Food, Drugs and Cosmetics, published by The Association of Food and Drug Officials of The United States. The specific method employed used nine inductive patchings, not the ten cited in the reference, under occlusive patch conditions. Samples were prepared for evaluation by diluting the highly pure hexylresorcinol in corn oil to a 5% concentration, with dilutions freshly prepared on each application day. 0.2 ml of the diluted test material was dispensed onto occlusive, hypoallergenic patches and the treated patches applied directly to the skin of the infrascapular regions of the back, to the right or left of the midline of each subject: one hundred and eleven subjects were employed. […] If evidence of a reaction was found, the area of edema and/or erythema was then measured and recorded: edema being estimated by an evaluation of the skin with respect to the contour of the unaffected normal skin. […] The challenge or retest sites were monitored and scored 24 and 48 hours after application.

SMILES	ΔITA Degrees ([1]; Week 4) [%]	ΔL Value ([1]; Week 4) [%]	ΔITA Degrees ([1]; Week 8) [%]	ΔL Value ([1]; Week 8) [%]	adverse effects [1]	primary irritation (edema or erythema) ([2]; 0.2 ml occlusive patch, nine 24 hour exposures)	sensitization after challenge patch ([2]; challenge after 10-14 day rest, scored 24 and 48 hours)	change in skin color compared with the 2% hydroquinone composition ([1]; 0.5% composition, eight weeks twice a day)
Oc1ccc(O)cc1 [Hydroquinone, hydroquinone, reference compound]	27.66	3.24	39.38	4.27	No adverse effects			
CCCCCCc1ccc(O)cc1O [Hexylresorcinol, 4-Hexylresorcinol]	27.48	3.4	37.56	4.67	No adverse effects	NON-PRIMARY IRRITANT	NON-PRIMARY SENSITIZER	comparable, statistically significant
